Assay results reported in patent publication US20230111310A1, “CARBOXYLIC ACID DERIVATIVE-SUBSTITUTED IMINO ARYL COMPOUND, PREPARATION METHOD THEREFOR, HERBICIDAL COMPOSITION AND USE THEREOF” (Qingdao Kingagroot Chemical Compound Co., Ltd., priority 2020, published 2023).

How the values were obtained:
Experiment in all cases: Weeding effect in post-emergence stage
Format in all cases: in vivo
Abutilon theophrasti = details: for Weeding effect in post-emergence stage, Abutilon theophrasti (level): fresh weight control rate level
Method in brief: (§1)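 Doses of 500, 250, 125, 60, 30, 15 and 7.5 g/ha, with methyl oleate synergist (1.5 liter/ha) and Tween 80 from acetone solution, applied by spray tower post-emergence (2–3 leaf stage). Weed control scored after 3 further greenhouse weeks, averaged over triplicates.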

Alopecurus japonicus = details: for Weeding effect in post-emergence stage, Alopecurus japonicus (level): fresh weight control rate level
Method in brief: as §1

Digitaria sanguinalis = details: for Weeding effect in post-emergence stage, Digitaria sanguinalis (level): fresh weight control rate level
Method in brief: as §1

Eleusine indica = details: for Weeding effect in post-emergence stage, Eleusine indica (level): fresh weight control rate level
Method in brief: as §1

Setaria viridis = details: for Weeding effect in post-emergence stage, Setaria viridis (level): fresh weight control rate level
Method in brief: as §1

Echinochloa crusgalli = details: for Weeding effect in post-emergence stage, Echinochloa crusgalli (level): fresh weight control rate level
Method in brief: as §1

[1] = Dose 30 g/ha, level of fresh weight growth control rate

Question: How did the “Weeding effect in post-emergence stage, Abutilon theophrasti” value (Abutilon theophrasti; [1]) turn out when COC(=O)C(C)O/N=C/c1cc(-n2c(=O)cc(C(F)(F)F)n(C)c2=S)c(F)cc1Cl (stereo not drawn) [Compound 347] was run?
Answer: 5 (Level 5: growth control rate is above 85%)

Question: What about the “Weeding effect in post-emergence stage, Alopecurus japonicus” value (Alopecurus japonicus; [1]) of the same molecule?
Answer: 5 (Level 5: growth control rate is above 85%)

Question: And the “Weeding effect in post-emergence stage, Digitaria sanguinalis” value (Digitaria sanguinalis; [1])?
Answer: 5 (Level 5: growth control rate is above 85%)

Question: What about the “Weeding effect in post-emergence stage, Eleusine indica” value (Eleusine indica; [1]) of the same molecule?
Answer: 5 (Level 5: growth control rate is above 85%)

Question: What about the “Weeding effect in post-emergence stage, Setaria viridis” value (Setaria viridis; [1]) of the same molecule?
Answer: 5 (Level 5: growth control rate is above 85%)

Question: And the “Weeding effect in post-emergence stage, Echinochloa crusgalli” value (Echinochloa crusgalli; [1])?
Answer: 5 (Level 5: growth control rate is above 85%)

Question: What does the source list for CCSC(=O)C(C)O/N=C/c1cc(-n2c(=O)cc(C(F)(F)F)n(C)c2=O)c(F)cc1Cl (stereo not drawn) [Compound 398]?
Answer: Weeding effect in post-emergence stage, Abutilon theophrasti (level) (Abutilon theophrasti; Dose 15 g/ha): 5 (Level 5: growth control rate is above 85%); Weeding effect in post-emergence stage, Alopecurus japonicus (level) (Alopecurus japonicus; Dose 15 g/ha): 5 (Level 5: growth control rate is above 85%); Weeding effect in post-emergence stage, Digitaria sanguinalis (level) (Digitaria sanguinalis; Dose 15 g/ha): 5 (Level 5: growth control rate is above 85%); Weeding effect in post-emergence stage, Eleusine indica (level) (Eleusine indica; Dose 15 g/ha): 5 (Level 5: growth control rate is above 85%); Weeding effect in post-emergence stage, Setaria viridis (level) (Setaria viridis; Dose 15 g/ha): 5 (Level 5: growth control rate is above 85%); Weeding effect in post-emergence stage, Echinochloa crusgalli (level) (Echinochloa crusgalli; Dose 15 g/ha): 5 (Level 5: growth control rate is above 85%)

Question: What does the source list for CCCSC(=O)C(C)O/N=C/c1cc(-n2c(=O)cc(C(F)(F)F)n(C)c2=O)c(F)cc1Cl (stereo not drawn) [Compound 399]?
Answer: Weeding effect in post-emergence stage, Abutilon theophrasti (level) (Abutilon theophrasti; Dose 15 g/ha): 5 (Level 5: growth control rate is above 85%); Weeding effect in post-emergence stage, Alopecurus japonicus (level) (Alopecurus japonicus; Dose 15 g/ha): 5 (Level 5: growth control rate is above 85%); Weeding effect in post-emergence stage, Digitaria sanguinalis (level) (Digitaria sanguinalis; Dose 15 g/ha): 5 (Level 5: growth control rate is above 85%); Weeding effect in post-emergence stage, Eleusine indica (level) (Eleusine indica; Dose 15 g/ha): 5 (Level 5: growth control rate is above 85%); Weeding effect in post-emergence stage, Setaria viridis (level) (Setaria viridis; Dose 15 g/ha): 5 (Level 5: growth control rate is above 85%); Weeding effect in post-emergence stage, Echinochloa crusgalli (level) (Echinochloa crusgalli; Dose 15 g/ha): 5 (Level 5: growth control rate is above 85%)

Question: With CC(C)SC(=O)C(C)O/N=C/c1cc(-n2c(=O)cc(C(F)(F)F)n(C)c2=O)c(F)cc1Cl (stereo not drawn) [Compound 400] as the molecule, how does the “Weeding effect in post-emergence stage, Abutilon theophrasti (level)” value (from here on “Weeding effect … Abutilon theophrasti (level)”) (Abutilon theophrasti; Dose 15 g/ha) read?
Answer: 5 (Level 5: growth control rate is above 85%)

Question: What about the “Weeding effect in post-emergence stage, Alopecurus japonicus (level)” value (“Weeding effect … Alopecurus japonicus (level)” below) (Alopecurus japonicus; Dose 15 g/ha) of the same molecule?
Answer: 4 (Level 4: growth control rate is greater than or equal to 60% and less than 85%)

Question: What about the “Weeding effect in post-emergence stage, Digitaria sanguinalis (level)” value (shortened to “Weeding effect … Digitaria sanguinalis (level)”) (Digitaria sanguinalis; Dose 15 g/ha) of the same molecule?
Answer: 5 (Level 5: growth control rate is above 85%)

Question: What about the “Weeding effect in post-emergence stage, Eleusine indica (level)” value (from here on “Weeding effect … Eleusine indica (level)”) (Eleusine indica; Dose 15 g/ha) of the same molecule?
Answer: 5 (Level 5: growth control rate is above 85%)

Question: What about the “Weeding effect in post-emergence stage, Setaria viridis (level)” value (shortened to “Weeding effect … Setaria viridis (level)”) (Setaria viridis; Dose 15 g/ha) of the same molecule?
Answer: 5 (Level 5: growth control rate is above 85%)

Question: And the “Weeding effect in post-emergence stage, Echinochloa crusgalli (level)” value (“Weeding effect … Echinochloa crusgalli (level)” below) (Echinochloa crusgalli; Dose 15 g/ha)?
Answer: 5 (Level 5: growth control rate is above 85%)

Question: COC(=O)CSC(=O)C(C)O/N=C/c1cc(-n2c(=O)cc(C(F)(F)F)n(C)c2=O)c(F)cc1Cl (stereo not drawn) [Compound 406] was tested. Which “Weeding effect … Abutilon theophrasti (level)” value (Abutilon theophrasti; Dose 15 g/ha) did it give?
Answer: 5 (Level 5: growth control rate is above 85%)

Question: And the “Weeding effect … Alopecurus japonicus (level)” value (Alopecurus japonicus; Dose 15 g/ha)?
Answer: 4 (Level 4: growth control rate is greater than or equal to 60% and less than 85%)

Question: And the “Weeding effect … Digitaria sanguinalis (level)” value (Digitaria sanguinalis; Dose 15 g/ha)?
Answer: 5 (Level 5: growth control rate is above 85%)

Question: What about the “Weeding effect … Eleusine indica (level)” value (Eleusine indica; Dose 15 g/ha) of the same molecule?
Answer: 5 (Level 5: growth control rate is above 85%)

Question: What about the “Weeding effect … Setaria viridis (level)” value (Setaria viridis; Dose 15 g/ha) of the same molecule?
Answer: 5 (Level 5: growth control rate is above 85%)

Question: What about the “Weeding effect … Echinochloa crusgalli (level)” value (Echinochloa crusgalli; Dose 15 g/ha) of the same molecule?
Answer: 5 (Level 5: growth control rate is above 85%)

Question: What does the source list for CC(O/N=C/c1cc(-n2c(=O)cc(C(F)(F)F)n(C)c2=O)c(F)cc1Cl)C(=O)SCc1ccccc1 (stereo not drawn) [Compound 409]?
Answer: Weeding effect in post-emergence stage, Abutilon theophrasti (level) (Abutilon theophrasti; Dose 30 g/ha): 5 (Level 5: growth control rate is above 85%); Weeding effect in post-emergence stage, Alopecurus japonicus (level) (Alopecurus japonicus; Dose 30 g/ha): 5 (Level 5: growth control rate is above 85%); Weeding effect in post-emergence stage, Digitaria sanguinalis (level) (Digitaria sanguinalis; Dose 30 g/ha): 5 (Level 5: growth control rate is above 85%); Weeding effect in post-emergence stage, Eleusine indica (level) (Eleusine indica; Dose 30 g/ha): 5 (Level 5: growth control rate is above 85%); Weeding effect in post-emergence stage, Setaria viridis (level) (Setaria viridis; Dose 30 g/ha): 5 (Level 5: growth control rate is above 85%); Weeding effect in post-emergence stage, Echinochloa crusgalli (level) (Echinochloa crusgalli; Dose 30 g/ha): 5 (Level 5: growth control rate is above 85%)

Question: What does the source list for COC(=O)CCNC(=O)C(C)O/N=C/c1cc(-n2c(=O)cc(C(F)(F)F)n(C)c2=O)c(F)cc1Cl (stereo not drawn) [Compound 416]?
Answer: Weeding effect in post-emergence stage, Abutilon theophrasti (level) (Abutilon theophrasti; Dose 15 g/ha): 5 (Level 5: growth control rate is above 85%); Weeding effect in post-emergence stage, Alopecurus japonicus (level) (Alopecurus japonicus; Dose 15 g/ha): 4 (Level 4: growth control rate is greater than or equal to 60% and less than 85%); Weeding effect in post-emergence stage, Digitaria sanguinalis (level) (Digitaria sanguinalis; Dose 15 g/ha): 5 (Level 5: growth control rate is above 85%); Weeding effect in post-emergence stage, Eleusine indica (level) (Eleusine indica; Dose 15 g/ha): 5 (Level 5: growth control rate is above 85%); Weeding effect in post-emergence stage, Setaria viridis (level) (Setaria viridis; Dose 15 g/ha): 5 (Level 5: growth control rate is above 85%); Weeding effect in post-emergence stage, Echinochloa crusgalli (level) (Echinochloa crusgalli; Dose 15 g/ha): 5 (Level 5: growth control rate is above 85%)

Question: Which “Weeding effect … Abutilon theophrasti (level)” value (Abutilon theophrasti; Dose 15 g/ha) does the source give for CON(C)C(=O)C(C)O/N=C/c1cc(-n2c(=O)cc(C(F)(F)F)n(C)c2=O)c(F)cc1Cl (stereo not drawn) [Compound 419] here?
Answer: 5 (Level 5: growth control rate is above 85%)

Question: What about the “Weeding effect … Alopecurus japonicus (level)” value (Alopecurus japonicus; Dose 15 g/ha) of the same molecule?
Answer: 5 (Level 5: growth control rate is above 85%)

Question: What about the “Weeding effect … Digitaria sanguinalis (level)” value (Digitaria sanguinalis; Dose 15 g/ha) of the same molecule?
Answer: 5 (Level 5: growth control rate is above 85%)

Question: What about the “Weeding effect … Eleusine indica (level)” value (Eleusine indica; Dose 15 g/ha) of the same molecule?
Answer: 5 (Level 5: growth control rate is above 85%)

Question: And the “Weeding effect … Setaria viridis (level)” value (Setaria viridis; Dose 15 g/ha)?
Answer: 5 (Level 5: growth control rate is above 85%)

Question: What about the “Weeding effect … Echinochloa crusgalli (level)” value (Echinochloa crusgalli; Dose 15 g/ha) of the same molecule?
Answer: 5 (Level 5: growth control rate is above 85%)
